Test results: patent US4146622A, “Aziridinyl quinone anti-transplanted tumor agents” (priority 1977, dated 1979)
Converted amounts (≈) assume the structure as drawn. “And” between values parts separate entries of the source, which are not always exact repeats. Equal values may be shown once. “Also recorded” adds a separate entry of the source. Read-outs that look alike come from different tables or passages of the source.

Experiments:
lymphoid leukemia L1210 [1] = details: cited from earlier work; for antitumor activity, prior testing: L1210 system, prior/literature
[2] = Room temperature water solubility; format: physicochemical
Description: In the following examples, all melting points are uncorrected and were recorded on a Thomas-Hoover capillary melting point apparatus. Elemental analyses were performed by NIAMDD, NIH, Bethesda, Maryland. Fluoranil, ethyleneimine and 2l -methylethyleneimine were obtained commerically. […] New compounds were identified by nmr and ir spectroscopy. In the tetraamino derivatives, the methylene protons of the aziridine rings usually occurred as a singlet at δ2.0-2.2 in CDCl3 or DMSO-d6. This absorption appeared at δ2.40 (CDCl3) for compound 11. Carbonyl absorption frequencies (nujol mull) occurred in the range 1620-1640 cm^-1 for the tetraamino compounds. Satisfactory elemental analyses (+0.4% of calculated values) are indicated by elemental symbols in Table VII. Room temperature water solubilities were determined by the incremental addition (pipet) of water to a weighed amount of compound with shaking. The solubility values in Table VII must be considered as approximate.

lymphoid leukemia L1210 [3] = assay: Intracerebral (IC) lymphoid leukemia L1210 test; format: in vivo, murine; details: for OD (optimum dose) / ILS (percentage increase in life span): Table X
Description: ^b Ic tumor implantation, ip QD1-9 treatment schedule.
The L1210, P388 and B16 test systems described in Table II utilize intraperitoneal (IP) tumor implantation and IP drug treatment while the Lewis lung system employs subcutaneous tumor implantation and IP treatment. All three CNS tumor models (Table III) use intracerebral (IC) tumor implantation and IP treatment.
Consistent with NCI antitumor test protocols, intraperitoneal (IP) administration of the drug was employed with all five tumor systems investigated. Tumor implantation was IP in the systems designated IP leukemia L1210 and P388 as well as B16 melanoma. Intracerebral (IC) tumor implantation was utilized in the IC L1210 and ependymoblastoma tumor systems.

B16 melanocarcinoma = assay: Intraperitoneal B16 melanocarcinoma transplanted mouse tumor test; format: in vivo, murine; details: for OD (optimum dose) / ILS (percentage increase in life span): Table IX; for OD (optimum dose): B16, QD1-9; for ILS (percentage increase in life span): B16, QD1-9, at OD
Description: (§1) ^b Ip tumor implantation, ip QD1-9 treatment schedule.
(§2) The L1210, P388 and B16 test systems described in Table II utilize intraperitoneal (IP) tumor implantation and IP drug treatment while the Lewis lung system employs subcutaneous tumor implantation and IP treatment.
(§3) Aqueous saline solution (0.9%) was used as the drug vehicle. Normally, five doses were employed per experiment with the top dose chosen to produce toxicity. The lower doses were 50% of each preceeding dose.
(§4) Consistent with NCI antitumor test protocols, intraperitoneal (IP) administration of the drug was employed with all five tumor systems investigated. Tumor implantation was IP in the systems designated IP leukemia L1210 and P388 as well as B16 melanoma.

[4] = tested on: P388 lymphocytic leukemia; assay: Intraperitoneal (IP) lymphocytic leukemia P388 transplanted mouse tumor test; format: in vivo, murine; details: Table IX; for ILS (percentage increase in life span): IP P388, QD1-9, at OD; for OD (optimum dose): IP P388, QD1-9
Description: as §1, §2, §3, §4

lymphoid leukemia L1210 [5] = assay: Intraperitoneal (IP) lymphoid leukemia L1210 transplanted mouse tumor test; format: in vivo, murine; details: for OD (optimum dose) / ILS (percentage increase in life span) / T - C (average weight change of test group minus control) / animals alive per 6 test animals on day of termination: Table VIII; for T - C (average weight change of test group minus control): day 5; for animals alive per 6 test animals on day of termination / survivors (number in parentheses) IP L1210: day 30; for ILS (%) IP L1210 / survivors (number in parentheses) IP L1210: Table XI; for ILS (%) IP L1210: outstanding activity; for survivors (number in parentheses) IP L1210: per 6 test animals
Text: ^(a) Day 1-9 treatment schedule (9 injections)
^(b) Day 1,5,9 treatment schedule (3 injections)
^(c) Day 1 only treatment schedule (1 injection)
^(f) Percentage increase in life span of treated animals [(treated
survival .div. control survival) × 100%] - 100%

ependymoblastoma = assay: Intracerebral (IC) ependymoblastoma (EM) brain tumor test; format: in vivo, murine; details: for antitumor activity: IC ependymoblastoma (EM); for OD (optimum dose) / ILS (percentage increase in life span) / animals alive per 6 test animals on day of termination: Table X, IC ependymoblastoma; for OD (optimum dose): QD1-5; for ILS (percentage increase in life span) / animals alive per 6 test animals on day of termination: QD1-5, at OD; for animals alive per 6 test animals on day of termination / survivors (number in parentheses) EM: day 60; for survivors (number in parentheses) EM: Table XI, per 6 test animals
Text: ^c Ic tumor implantation, ip QD1-5 treatment schedule.
^g Number of animals alive per six test animals on day of termination
of experiment (day 99 for expt 133 and day 60 for expt 136 and 144).
A third IC transplanted mouse tumor model, the ependymoblastoma system, was also studied. This system requires intracerebral implantation of a solid tumor fragment while the IC L1210 and IC P388 systems utilize IC inoculated ascites tumor fluid. All three use IP drug treatment however. […] Cures (survivors from the group of six mice on the last day of the experiment) are indicated. Experiments 136 and 144 were terminated on day 60. Since the number of cures was about the same, the differences in T/C values in these two experiments reflect differences in the life span of the two different sets of control animals. Experiment 133 was terminated on day 99 with a resulting higher activity value.
The hydrophilic dihydroxypropylamino compound (No. 39), which was curative in the IP L1210 and P388 leukemia systems, was active but gave a large spread in ILS values (53-186%). […] Again, its hydrophilic character may present transport problems in this IC tumor system.

[6] = Octanol/H2O partition coefficient (log P); format: physicochemical; details: Table VII, octanol/H2O
Text: ^(b) Octanol/H2 O values determined by C. Hansch and M. Yamakawa

[7] = water, Table VII, room temperature, approximate, read-out: Approx. H2O Sol.
[8] = IP L1210, Day 1 only (1 injection)
[9] = IP L1210, Q4D(1,5,9) (3 injections)

O=C1C(Cl)=C(N2CC2)C(=O)C(Cl)=C1N1CC1 [Compound 4, 2,5-dichloro-3,6-diaziridinyl-1,4-benzoquinone]
antitumor activity, prior testing (lymphoid leukemia L1210 [1]): inactive

O=C1C(Cl)=C(Cl)C(=O)C(Cl)=C1Cl [chloranil, tetrachlorobenzoquinone]
antitumor activity, prior testing (lymphoid leukemia L1210 [1]): inactive

COC1=C(N2CC2)C(=O)C(OC)=C(N2CC2)C1=O [Compound 28]
antitumor activity, prior testing (lymphoid leukemia L1210 [1]): intraperitoneal (IP) leukemia L1210 activity

NC1=C(Cl)C(=O)C(N)=C(Cl)C1=O [Compound 19]
antitumor activity, prior testing (lymphoid leukemia L1210 [1]): inactive

CCNC1=C(N2CC2)C(=O)C(NCC)=C(N2CC2)C1=O [Compound 35, 2,5-Diaziridinyl-3,6-bis(ethylamino)-1,4-benzoquinone]
solubility [2, 7]: 500 µg/mL (≈ 1810 µM) | OD (optimum dose) (lymphoid leukemia L1210 [3]; IC L1210, QD1-9): 3.0 mg/kg/injection | ILS (percentage increase in life span) (lymphoid leukemia L1210 [3]; IC L1210, QD1-9, at OD): 44% and 40% | OD (optimum dose) (B16 melanocarcinoma): 0.4 mg/kg/injection and 0.7 mg/kg/injection | ILS (percentage increase in life span) (B16 melanocarcinoma): 26% and 24% | ILS (percentage increase in life span) [4]: 160% and 103% | antitumor activity (lymphoid leukemia L1210 [5]; IP L1210, tetraaminobenzoquinone series (Table VIII)): activity appears to peak | OD (optimum dose) (lymphoid leukemia L1210 [5]; [8]): 1.5 mg/kg/injection | ILS (percentage increase in life span) (lymphoid leukemia L1210 [5]; IP L1210, Day 1 only, at OD): 68% and 54% | OD (optimum dose) (lymphoid leukemia L1210 [5]; [9]): 3.0 mg/kg/injection and 1.5 mg/kg/injection | ILS (percentage increase in life span) (lymphoid leukemia L1210 [5]; IP L1210, Q4D(1,5,9), at OD): 75% and 57% | OD (optimum dose) (lymphoid leukemia L1210 [5]; IP L1210, QD1-9 (9 injections)): 1.5 mg/kg/injection | ILS (percentage increase in life span) (lymphoid leukemia L1210 [5]; IP L1210, QD1-9, at OD): 112% and 91% | T - C (average weight change of test group minus control) (lymphoid leukemia L1210 [5]; IP L1210, QD1-9, at OD): -3.3 grams | animals alive per 6 test animals on day of termination (lymphoid leukemia L1210 [5]; IP L1210, QD1-9, at OD): 2 and 1 | ILS (%) IP L1210 (lymphoid leukemia L1210 [5]): 112% | survivors (number in parentheses) IP L1210 (lymphoid leukemia L1210 [5]): 2 | antitumor activity (ependymoblastoma): most active | OD (optimum dose) (ependymoblastoma): 1.5 mg/kg/injection | ILS (percentage increase in life span) (ependymoblastoma): 218% and 187% | animals alive per 6 test animals on day of termination (ependymoblastoma): 2 | survivors (number in parentheses) EM (ependymoblastoma): 2

CC(=O)NC1=C(N2CC2)C(=O)C(NC(C)=O)=C(N2CC2)C1=O [Compound 27]
antitumor activity, prior testing (lymphoid leukemia L1210 [1]): active; also recorded: intraperitoneal (IP) leukemia L1210 activity

CN(CCO)C1=C(N2CC2)C(=O)C(N(C)CCO)=C(N2CC2)C1=O [Compound 42]
logP ([6]; octanol/water): -0.38 | solubility [2, 7]: 60000 µg/mL (≈ 178000 µM) | OD (optimum dose) (lymphoid leukemia L1210 [3]; IC L1210, QD1-9): 4.0 mg/kg/injection and 2.0 mg/kg/injection | ILS (percentage increase in life span) (lymphoid leukemia L1210 [3]; IC L1210, QD1-9, at OD): 45% and 32% | antitumor activity (B16 melanocarcinoma; B16 melanoma): approached minimal reproducible activity | OD (optimum dose) (B16 melanocarcinoma): 0.8 mg/kg/injection | ILS (percentage increase in life span) (B16 melanocarcinoma): 47% and 31% | OD (optimum dose) [4]: 1.6 mg/kg/injection and 0.8 mg/kg/injection | ILS (percentage increase in life span) [4]: 162% and 145% | OD (optimum dose) (lymphoid leukemia L1210 [5]; [9]): 0.4 mg/kg/injection and 0.2 mg/kg/injection | OD (optimum dose) (lymphoid leukemia L1210 [5]; IP L1210, QD1-9 (9 injections)): 1.5 mg/kg/injection | animals alive per 6 test animals on day of termination (lymphoid leukemia L1210 [5]; IP L1210, QD1-9, at OD): 1 | ILS (%) IP L1210 (lymphoid leukemia L1210 [5]): 114% | survivors (number in parentheses) IP L1210 (lymphoid leukemia L1210 [5]): 1 | OD (optimum dose) (ependymoblastoma): 0.4 mg/kg/injection and 0.2 mg/kg/injection | ILS (percentage increase in life span) (ependymoblastoma): 84% and 69%

CC(=O)NC1=C(Cl)C(=O)C(NC(C)=O)=C(Cl)C1=O [Compound 20, 2,5-dichloro-3,5-acetylamino-1,4-benzoquinone]
antitumor activity, prior testing (lymphoid leukemia L1210 [1]): inactive

CN(C)C1=C(N2CC2)C(=O)C(N(C)C)=C(N2CC2)C1=O [Compound 41, 2,5-Diaziridinyl-3,6-bis(dimethylamino)-1,4-benzoquinone]
solubility [2]: increases the solubility greatly | solubility [2, 7]: 10000 µg/mL (≈ 36200 µM) | antitumor activity (lymphoid leukemia L1210 [3]; IC L1210): most active; also recorded: significant activity | OD (optimum dose) (lymphoid leukemia L1210 [3]; IC L1210, Q4D(1,5,9)): 3.0 mg/kg/injection | ILS (percentage increase in life span) (lymphoid leukemia L1210 [3]; IC L1210, Q4D(1,5,9), at OD): 72% and 56% | ILS (%) IC L1210 (lymphoid leukemia L1210 [3]; Table XI, outstanding activity): 72% | OD (optimum dose) (B16 melanocarcinoma): 0.2 mg/kg/injection | ILS (percentage increase in life span) (B16 melanocarcinoma): 16% and 12% | OD (optimum dose) [4]: 1.0 mg/kg/injection and 0.5 mg/kg/injection | ILS (percentage increase in life span) [4]: 74% and 37% | OD (optimum dose) (lymphoid leukemia L1210 [5]; [8]): 1.5 mg/kg/injection | ILS (percentage increase in life span) (lymphoid leukemia L1210 [5]; IP L1210, Day 1 only, at OD): 21% and 15% | OD (optimum dose) (lymphoid leukemia L1210 [5]; [9]): 3.0 mg/kg/injection | ILS (percentage increase in life span) (lymphoid leukemia L1210 [5]; IP L1210, Q4D(1,5,9), at OD): 120% and 73% | animals alive per 6 test animals on day of termination (lymphoid leukemia L1210 [5]; IP L1210, Q4D(1,5,9), at OD): 1 | ILS (%) IP L1210 (lymphoid leukemia L1210 [5]): 120% | survivors (number in parentheses) IP L1210 (lymphoid leukemia L1210 [5]): 1 | antitumor activity (ependymoblastoma): among the most active materials | OD (optimum dose) (ependymoblastoma): 1.0 mg/kg/injection and 0.5 mg/kg/injection | ILS (percentage increase in life span) (ependymoblastoma): 215% and 190% | animals alive per 6 test animals on day of termination (ependymoblastoma): 5 and 4 | survivors (number in parentheses) EM (ependymoblastoma): 5

O=C1C(N2CCOCC2)=C(N2CC2)C(=O)C(N2CCOCC2)=C1N1CC1 [Compound 46, 2,5-Diaziridinyl-3,6-dimorpholino-1,4-benzoquinone]
log P [6]: 0.52 | solubility [2, 7]: < 100 µg/mL | ILS (percentage increase in life span) (B16 melanocarcinoma): 24% and 17% | OD (optimum dose) [4]: 0.5 mg/kg/injection and 0.7 mg/kg/injection | ILS (percentage increase in life span) [4]: 52% and 48% | OD (optimum dose) (lymphoid leukemia L1210 [5]; [9]): 6.0 mg/kg/injection | T - C (average weight change of test group minus control) (lymphoid leukemia L1210 [5]; IP L1210, Q4D(1,5,9), at OD): -2.6 grams | ILS (percentage increase in life span) (ependymoblastoma): 134% and 82%

O=C1C(N2CC2)=C(N2CC2)C(=O)C(N2CC2)=C1N1CC1 [tetraaziridinyl derivative]
ILS (lymphoid leukemia L1210 [1]; L1210 leukemia system, earlier evaluation): 39%

NC(=O)CNC1=C(N2CC2)C(=O)C(NCC(N)=O)=C(N2CC2)C1=O [Compound 40]
solubility [2, 7]: 500 µg/mL (≈ 1500 µM) | ILS (percentage increase in life span) (lymphoid leukemia L1210 [3]; IC L1210, QD1-9, at OD): 16% | ILS (percentage increase in life span) (B16 melanocarcinoma): 37% and 22% | OD (optimum dose) [4]: 2.0 mg/kg/injection | ILS (percentage increase in life span) [4]: 85% and 71% | OD (optimum dose) (lymphoid leukemia L1210 [5]; [8]): 10.0 mg/kg/injection | ILS (percentage increase in life span) (lymphoid leukemia L1210 [5]; IP L1210, Day 1 only, at OD): 21% and 15% | OD (optimum dose) (lymphoid leukemia L1210 [5]; [9]): 8.0 mg/kg/injection | OD (optimum dose) (lymphoid leukemia L1210 [5]; IP L1210, QD1-9 (9 injections)): 10.0 mg/kg/injection | ILS (percentage increase in life span) (lymphoid leukemia L1210 [5]; IP L1210, QD1-9, at OD): 92% and 91% | OD (optimum dose) (ependymoblastoma): 2.0 mg/kg/injection and 1.0 mg/kg/injection | ILS (percentage increase in life span) (ependymoblastoma): 64% and 50%

COC1=C(Br)C(=O)C(OC)=C(Br)C1=O [Compound 14, 2,5-dibromo-3,6-dimethoxy-1,4-benzoquinone]
antitumor activity, prior testing (lymphoid leukemia L1210 [1]): inactive
